Entries after “also recorded” stand apart in the source; their conditions may differ. Where a name gives a salt, the structure may show the parent alone.
Key:
mice [1] = assay: Spontaneous motility; type: in vivo, mouse; conditions: i.p.
Procedure: 0.5 hour after they have received CRL 41 153, the mice (6 per dose, 12 control animals) are placed in an actimeter, where their motility is recorded for 30 minutes.

mice [2] = assay: Interaction with apomorphine in mice; type: in vivo, mouse; conditions: i.p.
Procedure: Groups of 6 mice receive CRL 41 153 0.5 hour before the subcutaneous injection of 1 or 16 mg/kg of apomorphine.

dogs = assay: Cardiovascular study in anesthetized dogs; type: in vivo, dog
How it was run: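 Nembutal-anaesthetized dogs (~14 kg) given CRL 41 194 (n=2) or CRL 41 221 (n=4) intraduodenally at successive 0.1, 0.5, 1, 2.5, 5 and 10 mg/kg doses. Blood pressure, heart rate, femoral and vertebral flow, rectal temperature measured; skin colour observed, plus bile colour (CRL 41 194).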

mice [3] = assay: Behavioral despair; type: in vivo, mouse; conditions: forcibly immersed mice, i.p.
Excerpt: Half an hour after they have received CRL 41 153, groups of 6 mice are placed in a beaker filled with water to a height of 6 cm. The total period of immobility between the 2nd and 6th minutes following immersion is noted.

mice [4] = assay: Overall behavior and reactivities in mice; type: in vivo, mouse; conditions: dose not stated
Procedure: (§1) In the neuropsychopharmacological study which follows, a solution of CRL 41 153 in distilled water (pH 1.5) was administered intraperitoneally in a volume of 20 ml/kg to male mice and 5 ml/kg to male rats.
(§2) Groups of three animals are observed before and then 0.25 hour, 0.50 hour, 1 hour, 2 hours, 3 hours and 24 hours after the administration of CRL 41 153.

[5] = pH of solutions in distilled water; type: physicochemical
Procedure: The neuropsychopharmacological study was undertaken according to the procedures described above for CRL 41 153, CRL 41 213 being adminstered intraperitoneally, in solution in distilled water, in a volume of 20 ml/kg to male mice and a volume of 5 ml/kg to male rats, and the pH of the injected solution varying with the concentration of CRL 41 213 according to the data given in Table II below.

[6] = Acute toxicity by intraperitoneal administration; type: in vivo, mouse; conditions: mouse, in vivo, ip; male mice
Procedure: as §1

mice [7] = assay: Motility reduced by habituation to the enclosure; type: in vivo, mouse; conditions: i.p.
Procedure: After they have stayed In the actimeters for 18 hours, (he mice (6 per dose, 12 control animals) receive CRL 41 153. They are immediately returned to their respective enclosures and, half an hour later, their motility is recorded for 30 minutes.

humans = assay: Clinical study: vasodilator; type: in vivo, human
Excerpt: In the treatment of diseases associated with the blood circulation through the vessels.

mice [8] = assay: Interaction with barbital; type: in vivo, mouse; conditions: i.p., barbital 220 mg/kg
Procedure: Half an hour after the administration of CRL 41 153, groups of 10 mice receive an intraperitoneal injection of barbital (220 mg/kg).

mice [9] = assay: Interaction with oxotremorine; type: in vivo, mouse; conditions: i.p.
Procedure: CRL 41 153 is administered to groups of 6 mice 0.5 hour before the intraperitoneal injection of 0.5 mg/kg of oxotremorine.

rats [10] = assay: Overall behavior and reactivities in rats; type: in vivo, rat; conditions: dose not stated
Procedure: as §1, §2

mice [11] = assay: Motility reduced by hypoxic aggression; type: in vivo, mouse; conditions: i.p.
Procedure: Half an hour after they have received CRL 41 153, the mice (10 per dose, 20 control animals) are subjected to acute hypobaric anoxia [pressure reduction of 600 mm Hg (i.e. about 8×10^4 Pa) in 90 seconds; release of vacuum in 45 seconds] and are then placed in an actimeter, where their motility is recorded for 10 minutes.

rats [12] = assay: Interaction with amphetamine; type: in vivo, rat; conditions: i.p.
Procedure: Amphetamine (2 mg/kg) is injected intraperitoneally into groups of 6 rats 30 minutes after the administration of CRL 41 153. […] 4 mg/kg and 16 mg/kg, CRL 41 153 potentiates the intensity and duration of the stereotypies induced by amphetamine.

[13] = system: gravid White New Zealand female rabbits; assay: Teratogenicity in gravid White New Zealand rabbits; type: in vivo, rabbit; conditions: day 5 to day 18 of gestation; for Affected foetuses, %: normal limit 1.5%
How it was run: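 Fetuses harvested by cesarean on gestation day 29 were scored for number and for any malformation (limb blockade, anury, tail or skull defects, exencephaly).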

mice [14] = assay: Interaction with reserpine; type: in vivo, mouse; conditions: i.p.
Procedure: Four hours after the intraperitoneal injection of 2.5 mg/kg of reserpine, groups of 6 mice receive CRL 41 153.

rats [15] = assay: Interaction with apomorphine in rats; type: in vivo, rat; conditions: i.p.
Procedure: CRL 41 153 is administered to groups of 6 rats 0.5 hour before the subcutaneous injection of 0.5 mg/kg of apomorphine.

CNS = assay: Neuropsychopharmacological profile as a whole; type: in vivo, mice and rats
Procedure: as §1

[16] = anesthetized dogs, intraduodenal

CC(C(=O)c1ccc(N)cc1)N1CCCC1 (stereo not drawn) [CRL 41 222, 1-(4-aminophenyl)-2-pyrrolidinopropanone dihydrochloride]
Spontaneous motor activity (mice [1]): an increase in the motor activity
Effect on hypothermia induced by apomorphine (mice [2]): antagonism of the hypothermia
Vasodilator (conclusion) (dogs): vasodiating properties
Effect of propanolol or atenolol on the action of the product (dogs; anesthetized dogs): acts by stimulating the β-cardiac and vascular receptors
Effect on hypertension induced by norepinephrine (dogs; anesthetized dogs): moderately increases the hypertension induced by norepinephrine
Effects of isoprenaline (not further specified) (dogs; anesthetized dogs): without modifying the effects of isoprenaline
Rectal temperature (dogs; anesthetized dogs): The rectal temperature and skin temperature rise
Skin temperature (dogs; anesthetized dogs): The rectal temperature and skin temperature rise
Blood pressure (dogs; [16]): A hypotensive action appears at 20 mg/kg as a drop in the diastolic blood pressure
Femoral flow (dogs; [16]): substantial and regular increase in the femoral and vertebral flows
Heart rate (dogs; [16]): accompanied by tachycardia
Respiration (dogs; [16]): Respiratory stimulation is observed in all the animals
Vertebral flow (dogs; [16]): substantial and regular increase in the femoral and vertebral flows
Period of immobility due to despair (mice [3]): a reduction in the period of immobility
Overall behavior: observed effects (summary) (mice [4]): excitation in mice and rats
Stereotype movements (summary) (mice [4]): presence of stereotype movements
pH ([5]; 0.1 g/liter in distilled water): 5
pH ([5]; 0.2 g/liter in distilled water): 4.5
pH ([5]; 0.4 g/liter in distilled water): 4.0
pH ([5]; 0.8 g/liter in distilled water): 3.5
pH ([5]; 1.6 g/liter in distilled water): 3.0
pH ([5]; 3.2 g/liter in distilled water): 2.5
pH ([5]; 6.4 g/liter in distilled water): 2.0
pH ([5]; 12.8 g/liter in distilled water): 1.5
pH ([5]; ≤0.05 g/liter in distilled water): 5.5
LD50 [6]: 87 mg/kg
Motor activity of mice accustomed to their enclosure (mice [7]): resumption in the motor activity of mice accustomed to their enclosure
Vasodilator in human clinical use (humans): good peripheral vasodilator at a daily dose of 2×10 mg
Duration of the sleep induced by barbital (mice [8]): distinct antagonism of the sleep induced by barbital
Effect on hypothermic action of oxotremorine (mice [9]): antagonism of the hypothermia
Effect on trembling induced by oxotremorine (mice [9]): antagonism of the trembling induced by oxotremorine
Overall behavior: observed effects (summary) (rats [10]): excitation in mice and rats
Stereotype movements (summary) (rats [10]): presence of stereotype movements
Motor recovery of mice after hypobaric hypoxia (mice [11]): improvement in the motor recovery
Effect on stereotypies induced by amphetamine (rats [12]): potentiation of the stereotypies
Affected foetuses, number ([13]; 5 mg/kg daily): 1
Total foetuses (live) ([13]; 5 mg/kg daily): 85
Affected foetuses, % ([13]; 5 mg/kg daily): 1.29%
Affected foetuses, number ([13]; 10 mg/kg daily): 0
Total foetuses (live) ([13]; 10 mg/kg daily): 92
Affected foetuses, % ([13]; 10 mg/kg daily): 0%
Effect on hypothermia induced by reserpine (mice [14]): antagonism of the hypothermia
Effect on ptosis induced by reserpine (mice [14]): antagonism of the ptosis induced by reserpine
Effect on stereotypies induced by apomorphine (rats [15]): potentiation of the stereotypies
Antidepressant effects (overall) (CNS; conclusion of the tests): possessing antidepressant, stimulant and arousing properties
Stimulant effects (overall) (CNS; conclusion of the tests): possessing antidepressant, stimulant and arousing properties
α-adrenergic stimulant effects (overall) (CNS; conclusion of the tests): peripheral α-adrenergic stimulant effects
Peripheral α-adrenergic signs (mydriasis, salivation, lacrimation, exophthalmos) (CNS; species and dose not stated, dihydrochloride): mydriasis; also recorded: salivation and lacrimation

Source: patent US4980377A, “1-(aminophenyl)-2-aminopropanone derivatives” (Laboratoire L. Lafon, priority 1984, dated 1990)
